Data: patent publication US8796273B2, “Compound for the treatment of enteroviruses” (priority 2010, dated 2014)

These molecules were tested on Poliovirus 1 (PV1) (assay: microbe, parasite or virus in culture). Conditions: Enterovirus C, read-out: EC50, replication of Poliovirus 1 (PV1).
Assay type: cell-based, Human enterovirus C
In the case of `COc1ccc(OCc2ccc(COc3c(Cl)cccc3Cl)cc2)c(Cl)c1` [Compound V-073, V-073], the EC50 is reported as 26 ± 23 nM. With `CC(C)S(=O)(=O)n1c(N)nc2ccc(/C(=N/O)c3ccccc3)cc21` [Enviroxime] the EC50 was 790 ± 130 nM. In the case of `Cc1cc(CCCOc2c(C)cc(-c3noc(C(F)(F)F)n3)cc2C)on1` [Pleconaril], the EC50 is reported as > 300000 nM. `CCOC(=O)/C=C/[C@H](C[C@@H]1CCNC1=O)NC(=O)[C@@H](CC(=O)[C@@H](NC(=O)c1cc(C)on1)C(C)C)Cc1ccc(F)cc1` [Rupintrivir] gave an EC50 of 4500 ± 360 nM.

These molecules were tested on Enterovirus 71 (EV71) (assay: microbe, parasite or virus in culture). Conditions: Enterovirus A, EV71, read-out: EC50, replication of Enterovirus 71 (EV71).
Assay type: cell-based, Human enterovirus A
In the case of `COc1ccc(OCc2ccc(COc3c(Cl)cccc3Cl)cc2)c(Cl)c1` [Compound V-073, V-073], the EC50 is reported as > 300000 nM. In the case of `CC(C)S(=O)(=O)n1c(N)nc2ccc(/C(=N/O)c3ccccc3)cc21` [Enviroxime], the EC50 is reported as 450 ± 120 nM. With `Cc1cc(CCCOc2c(C)cc(-c3noc(C(F)(F)F)n3)cc2C)on1` [Pleconaril] the EC50 was > 300000 nM. For `CCOC(=O)/C=C/[C@H](C[C@@H]1CCNC1=O)NC(=O)[C@@H](CC(=O)[C@@H](NC(=O)c1cc(C)on1)C(C)C)Cc1ccc(F)cc1` [Rupintrivir], the EC50 was 900 ± 70 nM.
